Source: patent publication US9629856B2, “Compositions and methods for the treatment of skin diseases and disorders using antimicrobial peptide sequestering compounds” (Anteis SA, priority 2010, dated 2017)

System: Rosacea patients
Assay: Clinical study with rosacea patients
Conditions: human, in vivo
Description: The following assessments or evaluations were performed before the treatment (Visit 1) and during the treatment period after about 2 weeks (Visit 2), about 4 weeks (Visit 3) and about 8 weeks (Visit 4): Tolerability including burning/stinging/tingling, pruritis, dryness, scaling/peeling and atrophy were evaluated of the face by the investigator (i.e., dermatologist) according to the following scale: 0=none, 1=mild, 2=moderate, 3=severe. Furthermore, any adverse events experienced by subject during the study period, whether related to the treatment or not, were recorded. Assessment of overall skin conditions of the face was performed by the investigator (i.e., dermatologist) according to the following scoring system: [table] Count of total number of inflammatory lesions (papules and pustules) on the face by the investigator (i.e., dermatologist). Evaluation of the severity of both redness/erythema and telangiectasia on the face by the investigator (i.e., dermatologist) according to the following scale: [table] […] Clinical photographs were taken at all visits utilizing standardized conditions for all subjects. […] In case possible, cross-polarized, parallel-polarized and visible light images were acquired along with both blue fluorescence and ultraviolet fluorescence images.

**Q.** Which immunotoxic effects does the source give for “Hydroxypropyl Starch Phosphate [Structure XL]” here?
**A.** Its immunotoxic effects is “no evidence of immunotoxic effects”.
